Data on 3 molecules can be found in patent US9113629B2, “4-amino-6-(4-substituted-phenyl)-picolinates and 6-amino-2-(4-substituted-phenyl)-pyrimidine-4-carboxylates and their use as herbicides” (DOW AGROSCIENCES LLC, priority 2013, dated 2015).

Read-outs that look alike come from different tables or passages of the source. Bounds are passed on as bounds.

Test [1] has as its system TRZSS. The experiment in a line: Pre-emergent Test III, preemergent activity in wheat and barley. In kind it is in vivo, Triticum aestivum. The protocol: (§1) Pre-emergent Test III. Seeds of test species were planted into square plastic pots (10 cm wide) containing sandy loam soil. After planting, all pots were sub-irrigated 16 h prior to compound application. A weighed amount, determined by the highest rate to be tested, of each test compound was placed in a 25 mL glass vial and was dissolved in 4 mL of a 97:3 v/v mixture of acetone and DMSO to obtain concentrated stock solutions. […] The concentrated stock solutions obtained were diluted with 20 mL of an aqueous mixture containing water and 0.02% w/v (weight/volume) of Triton X-155 to obtain spray solutions containing the highest application rates. Additional application rates were obtained by serial dilution of 12 mL of the high rate solution into a solution containing 2 mL of 97:3 v/v mixture of acetone and DMSO and 10 mL of an aqueous mixture containing water and 0.02% w/v (weight/volume) of Triton X-155 to obtain 1⁄2×, 1⁄4×, 1⁄8× and 1/16× rates of the high rate. Compound requirements are based upon a 12 mL application volume at a rate of 187 liters per hectare (L/ha). Formulated compounds were applied to the soil surface with an overhead Mandel track sprayer equipped with […] nozzles calibrated to deliver 187 L/ha over an application area of 0.503 square meters. Control pots were sprayed in the same manner with the solvent blank. The treated pots and control pots were placed in a greenhouse as described above and watered through surface irrigation. After 21 d, the condition of the test pots as compared with that of the untreated pots was determined visually and scored on a scale of 0 to 100 percent where 0 corresponds to no herbicidal effect and 100 corresponds to plant death or lack of emergence from the soil. By applying the well-accepted probit analysis as described by J. Berkson in Journal of the American Statistical Society, 48, 565 (1953) and by D. Finney in “Probit Analysis” Cambridge University Press (1952), the above data can be used to calculate GR20, GR50, GR80 and GR90 values, which are defined as growth reduction factors that correspond to the effective dose of herbicide required to kill or control 20 percent, 50 percent, 80 percent or 90 percent, respectively, of a target plant.

Test [2] deals with VERPE: bird's-eye speedwell (veronica persica). The test is described as follows: Post-emergent Test III, herbicidal activity in wheat and barley. In kind it is in vivo. To be noted: for pest or weed control at 35 g/ha: 35 g ai/ha; for pest or weed control at 70 g/ha: 70 g ai/ha; for GR50 VERPE / GR80 VERPE: probit analysis. A digest of the protocol:
(§2)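 Plants at the second to third true-leaf stage, grown in a greenhouse at about 18/17 °C with a 14 h photoperiod, were sprayed post-emergence at 187 L/ha with the high rate and ½× to 1/16× serial dilutions in an acetone/DMSO/crop-oil/surfactant carrier. Injury was rated visually at 21 d on a 0–100% scale, and GR20–GR90 were derived by probit analysis.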

For test [3], the system named is SETVI. The test is described as follows: Pre-emergent Test III, preemergent activity in wheat and barley. In kind it is in vivo, Setaria viridis. As to the method:
as §1

In test [4] the test system is HORSS. The test is described as above. In kind it is in vivo, Hordeum vulgare. As to the method: as §1
Test [5] has as its system LAMSS. Described as above. In kind it is in vivo. The protocol: as §1
The test system of test [6] is BROTE: downy brome (Bromus tectorum). The experiment in a line: Post-emergent Test III, herbicidal activity in wheat and barley. In kind it is in vivo. To be noted: for pest or weed control at 35 g/ha: 35 g ai/ha; for pest or weed control at 70 g/ha: 70 g ai/ha; for GR50 BROTE / GR80 BROTE: probit analysis, 21 days after application; for GR50 BROTE: dose for growth reduction of 50 percent; for GR80 BROTE: dose for growth reduction of 80 percent. A digest of the protocol: as §2

[7] abbreviates: 21 days after application, dose to kill or control 20%, probit analysis.
The mark [8] stands for this setting: Veronica persica, post-emergence, 504 h, 21 days after application, read-out: Visual Gorowth Reduction (%) 21 days After Application VERPE.
Where [9] appears, read: 21 days after application, dose to kill or control 50%, probit analysis.
The mark [10] stands for this setting: 21 days after application, dose to kill or control 80%, probit analysis.
[11] abbreviates: Bromus tectorum, post-emergence, 504 h, read-out: Visual Growth Reduction (%) 21 Days After Application BROTE.
Setting [12] is: Veronica persica, post-emergence, 504 h, read-out: Visual Growth Reduction (%) 21 Days After Application VERPE.

For `COC(=O)c1nc(-c2ccc(Br)c(F)c2)c(F)c(N)c1Cl` [Compound 49], the “Visual Growth Reduction (%) 21 Days After Application, TRZSS” value in test [1] (35 g ai/ha) and in test [1] (70 g ai/ha) was “G (0-29)” throughout. In addition, the “GR20 TRZSS” value in test [1] (setting [7]) is listed as over 70 g ai/ha. Moreover, the pest or weed control at 35 g/ha in test [2] (setting [8]) fell in the range of 45 to 59%. In addition, the pest or weed control at 70 g/ha in test [2] (setting [8]) lay in the range of 60 to 74%. The “GR50 VERPE” value in test [2] (dose for 50 percent growth reduction, 21 days after application) was found to be 37 g ai/ha. For the same molecule, the “GR80 VERPE” value in test [2] (dose for 80 percent growth reduction, 21 days after application) is over 140 g ai/ha. Also, the “Visual Growth Reduction (%) 21 Days After Application, SETVI” value in test [3] (35 g ai/ha) and in test [3] (70 g ai/ha) was “F (30-44)” throughout. Moreover, the “GR50 SETVI” value in test [3] (setting [9]) is reported as over 70 g ai/ha. Also, the “GR80 SETVI” value in test [3] (setting [10]) is given as over 70 g ai/ha. The “Visual Growth Reduction (%) 21 Days After Application, HORSS” value in test [4] (35 g ai/ha) and in test [4] (70 g ai/ha) was “G (0-29)” each time. The “GR20 HORSS” value in test [4] (setting [7]) is over 70 g ai/ha. Further, the “Visual Growth Reduction (%) 21 Days After Application, LAMSS” value in test [5] (35 g ai/ha) and in test [5] (70 g ai/ha) was “A (95-100)” each time. The “GR50 LAMSS” value in test [5] (setting [9]) is 1 g ai/ha. Also, in test [5] (setting [10]), the “GR80 LAMSS” value is recorded as 3 g ai/ha.

For `Nc1c(F)c(-c2ccc(C(F)(F)F)c(F)c2F)nc(C(=O)O)c1Cl` [Compound 167], in test [6] (setting [11]), the pest or weed control at 35 g/ha fell in the range of 30 to 44% and the pest or weed control at 70 g/ha lay within 75 to 84%. For the same molecule, in test [6], the “GR50 BROTE” value worked out at 43 g ai/ha and the “GR80 BROTE” value stood at 81 g ai/ha.

As to `COC(=O)c1nc(-c2ccc(Cl)c(F)c2)c(F)c(N)c1Cl` [Compound 216], in test [2] (setting [12]), the pest or weed control at 35 g/ha lay within 45 to 59% and the pest or weed control at 70 g/ha was 60 to 74%. The pest or weed control at 140 g/ha in test [2] (Veronica persica, post-emergence, 504 h, 140 g ai/ha, read-out: Visual Growth Reduction (%) 21 Days After Application VERPE) was in the range of 75 to 84%. Besides, the “GR50 VERPE” value in test [2] (dose for growth reduction of 50 percent, 21 days after application) is 32 g ai/ha. In addition, the “GR80 VERPE” value in test [2] (dose for growth reduction of 80 percent, 21 days after application) is listed as over 140 g ai/ha. Besides, in test [6] (setting [11]), the pest or weed control at 35 g/ha fell in the range of 30 to 44% and the pest or weed control at 70 g/ha lay within 45 to 59%. The pest or weed control at 140 g/ha in test [6] (Bromus tectorum, post-emergence, 504 h, 140 g ai/ha, read-out: Visual Growth Reduction (%) 21 Days After Application BROTE) is 45 to 59%. Moreover, in test [6], the “GR50 BROTE” value stood at 136 g ai/ha and the “GR80 BROTE” value is on record as over 140 g ai/ha.
